Measurements as given in the supplement of paper PMC4862054.

Test system: Hs578T
Experiment: drug sensitivity score (DSS), CellTiter-Glo (DSS (AUC-based score)); higher = stronger drug effect (viability inhibition or cytotoxicity); extreme values may be limits of the assay
Settings: incubation time: 72 h
How it was run: (§1)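 Plates with 384 wells held compound at 5 concentrations in 10-fold steps over a 10,000-fold range specific to each compound. Breast cancer cell lines were added in 20 µl suspension and incubated 72 h, then read for CellTox Green and CellTiter-Glo signals, with each plate normalised to 0.1 % DMSO and a positive kill control. The drug sensitivity score is based on the area under the fitted dose-response curve.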

Structure (SMILES) | drug sensitivity score
CC1(COc2ccc3c(c2)ncn3-c2ccc3cccc(N4CCC(N)CC4)c3n2)COC1 [Crenolanib] | 4.07
CC(C)(C)c1nc(-c2cccc(NS(=O)(=O)c3c(F)cccc3F)c2F)c(-c2ccnc(N)n2)s1 [Dabrafenib] | 0.389
Cc1nc(C(=O)NCC(=O)O)c(O)c2ccc(Oc3ccccc3)cc12 [FG-4592] | 0
O=C(O)CNC(=O)c1c(O)c2ccccc2n(Cc2ccccc2)c1=O [IOX-2] | 0
CN(C)C(=N)NC(=N)N [Metformin] | 0
CC[C@H](CO)Nc1nc(NCc2ccccc2)c2ncn(C(C)C)c2n1 [Seliciclib] | 0
C=CCN(/C=C1/C(=O)O[C@H](COC)[C@@]2(C)C1=C(O)C(=O)C1=C2[C@H](OC(C)=O)C[C@]2(C)C(=O)CC[C@@H]12)CC=C [Sonolisib] | 0
O=[N+]([O-])c1ccc2c(c1)S(=O)(=O)C=C2 [Stattic] | 14
CC(C)n1cnc2c(NCCc3ccc(O)cc3)nc(-c3csc4ccccc34)nc21 [StemRegenin 1] | 0

Test system: MCF-10A
Experiment: as above
Settings: incubation time: 72 h
How it was run: as §1

Structure (SMILES) | drug sensitivity score
CCn1c(C(=O)N(C2CC2)C2CC2)cc2c3c(ncn3C)c(Nc3cc(C)n(C)n3)nc21 | 0
COc1ccc(S(=O)(=O)Nc2cccnc2Nc2ccc(O)cc2)cc1 [ABT-751] | 2.74
CN[C@@H](C)C(=O)N[C@H]1CN(C(=O)CC(C)C)CC[C@H]2CC[C@@H](C(=O)NC(c3ccccc3)c3ccccc3)N2C1=O [AT-406] | 0
Cc1cc(Nc2nc(N[C@@H](C)c3ncc(F)cn3)ncc2Cl)[nH]n1 [AZD1480] | 0
CC1(COc2ccc3c(c2)ncn3-c2ccc3cccc(N4CCC(N)CC4)c3n2)COC1 [Crenolanib] | 3.64
CC(C)(C)c1nc(-c2cccc(NS(=O)(=O)c3c(F)cccc3F)c2F)c(-c2ccnc(N)n2)s1 [Dabrafenib] | 0
Cc1nc(C(=O)NCC(=O)O)c(O)c2ccc(Oc3ccccc3)cc12 [FG-4592] | 0
O=C(O)CNC(=O)c1c(O)c2ccccc2n(Cc2ccccc2)c1=O [IOX-2] | 0
CN(C)C(=N)NC(=N)N [Metformin] | 0
CC[C@H](CO)Nc1nc(NCc2ccccc2)c2ncn(C(C)C)c2n1 [Seliciclib] | 0
C=CCN(/C=C1/C(=O)O[C@H](COC)[C@@]2(C)C1=C(O)C(=O)C1=C2[C@H](OC(C)=O)C[C@]2(C)C(=O)CC[C@@H]12)CC=C [Sonolisib] | 0
O=[N+]([O-])c1ccc2c(c1)S(=O)(=O)C=C2 [Stattic] | 5.13
CC(C)n1cnc2c(NCCc3ccc(O)cc3)nc(-c3csc4ccccc34)nc21 [StemRegenin 1] | 0

Test system: MDA-MB-231
Experiment: as above
Settings: incubation time: 72 h
How it was run: as §1

Structure (SMILES) | drug sensitivity score
CCn1c(C(=O)N(C2CC2)C2CC2)cc2c3c(ncn3C)c(Nc3cc(C)n(C)n3)nc21 | 0
COc1ccc(S(=O)(=O)Nc2cccnc2Nc2ccc(O)cc2)cc1 [ABT-751] | 7.19
CN[C@@H](C)C(=O)N[C@H]1CN(C(=O)CC(C)C)CC[C@H]2CC[C@@H](C(=O)NC(c3ccccc3)c3ccccc3)N2C1=O [AT-406] | 16
Cc1cc(Nc2nc(N[C@@H](C)c3ncc(F)cn3)ncc2Cl)[nH]n1 [AZD1480] | 0
CC1(COc2ccc3c(c2)ncn3-c2ccc3cccc(N4CCC(N)CC4)c3n2)COC1 [Crenolanib] | 4.35
CC(C)(C)c1nc(-c2cccc(NS(=O)(=O)c3c(F)cccc3F)c2F)c(-c2ccnc(N)n2)s1 [Dabrafenib] | 0
Cc1nc(C(=O)NCC(=O)O)c(O)c2ccc(Oc3ccccc3)cc12 [FG-4592] | 0
O=C(O)CNC(=O)c1c(O)c2ccccc2n(Cc2ccccc2)c1=O [IOX-2] | 0
CN(C)C(=N)NC(=N)N [Metformin] | 0
CC[C@H](CO)Nc1nc(NCc2ccccc2)c2ncn(C(C)C)c2n1 [Seliciclib] | 0
C=CCN(/C=C1/C(=O)O[C@H](COC)[C@@]2(C)C1=C(O)C(=O)C1=C2[C@H](OC(C)=O)C[C@]2(C)C(=O)CC[C@@H]12)CC=C [Sonolisib] | 0
O=[N+]([O-])c1ccc2c(c1)S(=O)(=O)C=C2 [Stattic] | 14.4
CC(C)n1cnc2c(NCCc3ccc(O)cc3)nc(-c3csc4ccccc34)nc21 [StemRegenin 1] | 0

Test system: MDA-MB-436
Experiment: as above
Settings: incubation time: 72 h
How it was run: as §1

Structure (SMILES) | drug sensitivity score
CCn1c(C(=O)N(C2CC2)C2CC2)cc2c3c(ncn3C)c(Nc3cc(C)n(C)n3)nc21 | 0
COc1ccc(S(=O)(=O)Nc2cccnc2Nc2ccc(O)cc2)cc1 [ABT-751] | 11.4
CN[C@@H](C)C(=O)N[C@H]1CN(C(=O)CC(C)C)CC[C@H]2CC[C@@H](C(=O)NC(c3ccccc3)c3ccccc3)N2C1=O [AT-406] | 0
Cc1cc(Nc2nc(N[C@@H](C)c3ncc(F)cn3)ncc2Cl)[nH]n1 [AZD1480] | 0
CC1(COc2ccc3c(c2)ncn3-c2ccc3cccc(N4CCC(N)CC4)c3n2)COC1 [Crenolanib] | 4.37
CC(C)(C)c1nc(-c2cccc(NS(=O)(=O)c3c(F)cccc3F)c2F)c(-c2ccnc(N)n2)s1 [Dabrafenib] | 0
Cc1nc(C(=O)NCC(=O)O)c(O)c2ccc(Oc3ccccc3)cc12 [FG-4592] | 0
O=C(O)CNC(=O)c1c(O)c2ccccc2n(Cc2ccccc2)c1=O [IOX-2] | 0
CN(C)C(=N)NC(=N)N [Metformin] | 0
CC[C@H](CO)Nc1nc(NCc2ccccc2)c2ncn(C(C)C)c2n1 [Seliciclib] | 0
C=CCN(/C=C1/C(=O)O[C@H](COC)[C@@]2(C)C1=C(O)C(=O)C1=C2[C@H](OC(C)=O)C[C@]2(C)C(=O)CC[C@@H]12)CC=C [Sonolisib] | 0
O=[N+]([O-])c1ccc2c(c1)S(=O)(=O)C=C2 [Stattic] | 9.28
CC(C)n1cnc2c(NCCc3ccc(O)cc3)nc(-c3csc4ccccc34)nc21 [StemRegenin 1] | 0.344

Test system: MDA-MB-453
Experiment: as above
Settings: incubation time: 72 h
How it was run: as §1

Structure (SMILES) | drug sensitivity score
CCn1c(C(=O)N(C2CC2)C2CC2)cc2c3c(ncn3C)c(Nc3cc(C)n(C)n3)nc21 | 0
COc1ccc(S(=O)(=O)Nc2cccnc2Nc2ccc(O)cc2)cc1 [ABT-751] | 10.5
CN[C@@H](C)C(=O)N[C@H]1CN(C(=O)CC(C)C)CC[C@H]2CC[C@@H](C(=O)NC(c3ccccc3)c3ccccc3)N2C1=O [AT-406] | 4.36
Cc1cc(Nc2nc(N[C@@H](C)c3ncc(F)cn3)ncc2Cl)[nH]n1 [AZD1480] | 0
CC1(COc2ccc3c(c2)ncn3-c2ccc3cccc(N4CCC(N)CC4)c3n2)COC1 [Crenolanib] | 3.06
CC(C)(C)c1nc(-c2cccc(NS(=O)(=O)c3c(F)cccc3F)c2F)c(-c2ccnc(N)n2)s1 [Dabrafenib] | 0
Cc1nc(C(=O)NCC(=O)O)c(O)c2ccc(Oc3ccccc3)cc12 [FG-4592] | 0
O=C(O)CNC(=O)c1c(O)c2ccccc2n(Cc2ccccc2)c1=O [IOX-2] | 0
CN(C)C(=N)NC(=N)N [Metformin] | 0
CC[C@H](CO)Nc1nc(NCc2ccccc2)c2ncn(C(C)C)c2n1 [Seliciclib] | 0
C=CCN(/C=C1/C(=O)O[C@H](COC)[C@@]2(C)C1=C(O)C(=O)C1=C2[C@H](OC(C)=O)C[C@]2(C)C(=O)CC[C@@H]12)CC=C [Sonolisib] | 0
O=[N+]([O-])c1ccc2c(c1)S(=O)(=O)C=C2 [Stattic] | 12.6
CC(C)n1cnc2c(NCCc3ccc(O)cc3)nc(-c3csc4ccccc34)nc21 [StemRegenin 1] | 0.255

Test system: MDA-MB-468
Experiment: as above
Settings: incubation time: 72 h
How it was run: as §1

Structure (SMILES) | drug sensitivity score
CCn1c(C(=O)N(C2CC2)C2CC2)cc2c3c(ncn3C)c(Nc3cc(C)n(C)n3)nc21 | 0.0233
COc1ccc(S(=O)(=O)Nc2cccnc2Nc2ccc(O)cc2)cc1 [ABT-751] | 12
CN[C@@H](C)C(=O)N[C@H]1CN(C(=O)CC(C)C)CC[C@H]2CC[C@@H](C(=O)NC(c3ccccc3)c3ccccc3)N2C1=O [AT-406] | 4.99
Cc1cc(Nc2nc(N[C@@H](C)c3ncc(F)cn3)ncc2Cl)[nH]n1 [AZD1480] | 0
CC1(COc2ccc3c(c2)ncn3-c2ccc3cccc(N4CCC(N)CC4)c3n2)COC1 [Crenolanib] | 3.61
CC(C)(C)c1nc(-c2cccc(NS(=O)(=O)c3c(F)cccc3F)c2F)c(-c2ccnc(N)n2)s1 [Dabrafenib] | 0
Cc1nc(C(=O)NCC(=O)O)c(O)c2ccc(Oc3ccccc3)cc12 [FG-4592] | 0
O=C(O)CNC(=O)c1c(O)c2ccccc2n(Cc2ccccc2)c1=O [IOX-2] | 0
CN(C)C(=N)NC(=N)N [Metformin] | 0.63
CC[C@H](CO)Nc1nc(NCc2ccccc2)c2ncn(C(C)C)c2n1 [Seliciclib] | 0
C=CCN(/C=C1/C(=O)O[C@H](COC)[C@@]2(C)C1=C(O)C(=O)C1=C2[C@H](OC(C)=O)C[C@]2(C)C(=O)CC[C@@H]12)CC=C [Sonolisib] | 0
O=[N+]([O-])c1ccc2c(c1)S(=O)(=O)C=C2 [Stattic] | 24.4
CC(C)n1cnc2c(NCCc3ccc(O)cc3)nc(-c3csc4ccccc34)nc21 [StemRegenin 1] | 0.986

Test system: MFM-223
Experiment: as above
Settings: incubation time: 72 h
How it was run: as §1

Structure (SMILES) | drug sensitivity score
CCn1c(C(=O)N(C2CC2)C2CC2)cc2c3c(ncn3C)c(Nc3cc(C)n(C)n3)nc21 | 0
COc1ccc(S(=O)(=O)Nc2cccnc2Nc2ccc(O)cc2)cc1 [ABT-751] | 7.28
CN[C@@H](C)C(=O)N[C@H]1CN(C(=O)CC(C)C)CC[C@H]2CC[C@@H](C(=O)NC(c3ccccc3)c3ccccc3)N2C1=O [AT-406] | 0
Cc1cc(Nc2nc(N[C@@H](C)c3ncc(F)cn3)ncc2Cl)[nH]n1 [AZD1480] | 5.17
CC1(COc2ccc3c(c2)ncn3-c2ccc3cccc(N4CCC(N)CC4)c3n2)COC1 [Crenolanib] | 0
CC(C)(C)c1nc(-c2cccc(NS(=O)(=O)c3c(F)cccc3F)c2F)c(-c2ccnc(N)n2)s1 [Dabrafenib] | 0
Cc1nc(C(=O)NCC(=O)O)c(O)c2ccc(Oc3ccccc3)cc12 [FG-4592] | 0
O=C(O)CNC(=O)c1c(O)c2ccccc2n(Cc2ccccc2)c1=O [IOX-2] | 0
CN(C)C(=N)NC(=N)N [Metformin] | 0
CC[C@H](CO)Nc1nc(NCc2ccccc2)c2ncn(C(C)C)c2n1 [Seliciclib] | 0
C=CCN(/C=C1/C(=O)O[C@H](COC)[C@@]2(C)C1=C(O)C(=O)C1=C2[C@H](OC(C)=O)C[C@]2(C)C(=O)CC[C@@H]12)CC=C [Sonolisib] | 0
O=[N+]([O-])c1ccc2c(c1)S(=O)(=O)C=C2 [Stattic] | 14.8
CC(C)n1cnc2c(NCCc3ccc(O)cc3)nc(-c3csc4ccccc34)nc21 [StemRegenin 1] | 1.58
